# Measured values reported in patent US20170050936A1, “CERTAIN CHEMICAL ENTITIES, COMPOSITIONS, AND METHODS” (NEUPHARMA, INC., priority 2013, published 2017).
# Tests used:
# EGFR (ErbB1) = target: T1, EGFR (ErbB1) (Homo sapiens, UniProt P00533); assay: Z'-LYTE kinase inhibition assay, EGFR; assay type: biochemical; details: read-out: IC50 against EGFR
# T1 construct: purchased Invitrogen
# Description: Inhibitory activities of compounds against BTK, EGFR and EGFR mutants (EGFR L858R, EGFR T790M, EGFR L858R/T790M), FGFR1, FGFR2, JAK2, JAK3 and KDR were measured by Invitrogen using Z'-LYTE® Method as briefly described in the following. Test Compounds are screened in 1% DMSO (final) in the well. For 10 point titrations, 3-fold serial dilutions are conducted from the starting concentration. All ATP Solutions are diluted to a 4× working concentration in Kinase Buffer (50 mM HEPES pH 7.5, 0.01% BRIJ-35, 10 mM MgCl2, 1 mM EGTA). Peptide/Kinase Mixtures are diluted to a 2× working concentration in the appropriate Kinase Buffers as described below. (i) Peptide/Kinase Mixtures for measurement of EGFR (ErbB1): The 2× EGFR (ErbB1)/[…] mixture is prepared in 50 mM HEPES pH 7.5, 0.01% BRIJ-35, 10 mM MgCl2, 4 mM MnCl2, 1 mM EGTA, 2 mM DTT. The final 10 μL Kinase Reaction consists of 1.1-5.25 ng EGFR (ErbB1) and 2 μM […] in 50 mM HEPES pH 7.5, 0.01% BRIJ-35, 10 mM MgCl2, 2 mM MnCl2, 1 mM EGTA, 1 mM DTT. After the 1 hour Kinase Reaction incubation, 5 μL of a 1:64 dilution of Development Reagent B is added. Reaction starts by 30-second shaking of mixture consisting of 2.5 μL 4× test compound, 5 μL 2× kinase reaction mixture and 2.5 μL 4× ATP Solution on Bar-coded Corning, low volume NBS, black 384-well plate (Corning Cat. #3676). Then the mixture is incubated for 60-minute at room temperature for the kinase reaction, followed by addition of 5 μL of a 1:1024 dilution of development reagent A and 30-second plate shake. The mixture is then incubated for another 60-minute at room temperature for development reaction. Finally fluorescence is read by plate reader. To determine IC50 of a compound against EGFR, EGFR mutant and other kinases, a series of concentrations of the compound were tested for the inhibition.
# FGFR1 = target: T2, FGFR1 (Homo sapiens, UniProt P11362); assay: Z'-LYTE kinase inhibition assay, FGFR1; assay type: biochemical; details: read-out: IC50 against FGFR1
# T2 construct: purchased Invitrogen
# Description: (§1) Inhibitory activities of compounds against BTK, EGFR and EGFR mutants (EGFR L858R, EGFR T790M, EGFR L858R/T790M), FGFR1, FGFR2, JAK2, JAK3 and KDR were measured by Invitrogen using Z′-LYTE® Method as briefly described in the following.
# (§2) Test Compounds are screened in 1% DMSO (final) in the well. For 10 point titrations, 3-fold serial dilutions are conducted from the starting concentration. All ATP Solutions are diluted to a 4× working concentration in Kinase Buffer (50 mM HEPES pH 7.5, 0.01% BRIJ-35, 10 mM MgCl2, 1 mM EGTA). Peptide/Kinase Mixtures are diluted to a 2× working concentration in the appropriate Kinase Buffers as described below.
# (v) Peptide/Kinase Mixtures for measurement of FGFR1:
# (§3) The 2× FGFR1/Tyr 04 mixture is prepared in 50 mM HEPES pH 7.5, 0.01% BRIJ-35, 10 mM MgCl2, 4 mM MnCl2, 1 mM EGTA, 2 mM DTT. The final 10 μL Kinase Reaction consists of 0.41-3.5 ng FGFR1 and 2 μM Tyr 04 in 50 mM HEPES pH 7.5, 0.01% BRIJ-35, 10 mM MgCl2, 2 mM MnCl2, 1 mM EGTA, 1 mM DTT. After the 1 hour Kinase Reaction incubation, 5 μL of a 1:64 dilution of Development Reagent B is added.
# (§4) Reaction starts by 30-second shaking of mixture consisting of 2.5 μL 4× test compound, 5 μL 2× kinase reaction mixture and 2.5 μL 4× ATP Solution on Bar-coded Corning, low volume NBS, black 384-well plate (Corning Cat. #3676). Then the mixture is incubated for 60-minute at room temperature for the kinase reaction, followed by addition of 5 μL of a 1:1024 dilution of development reagent A and 30-second plate shake. The mixture is then incubated for another 60-minute at room temperature for development reaction. Finally fluorescence is read by plate reader.
# (§5) To determine IC50 of a compound against EGFR, EGFR mutant and other kinases, a series of concentrations of the compound were tested for the inhibition. […] The scale utilized in Table 4 is as follows: +++ less than 100 nM, ++100-500 nM and + greater than 500 nM.
# KDR (VEGFR2) = target: T3, KDR (VEGFR2) (Homo sapiens, UniProt P35968); assay: Z'-LYTE kinase inhibition assay, KDR; assay type: biochemical; details: read-out: IC50 against KDR
# T3 construct: purchased Invitrogen
# Description: as §1, §2
# (v) Peptide/Kinase Mixtures for measurement of KDR (VEGFR2):
# The 2× KDR (VEGFR2)/Tyr 01 mixture is prepared in 50 mM HEPES pH 7.5, 0.01% BRIJ-35, 10 mM MgCl2, 1 mM EGTA. The final 10 μL Kinase Reaction consists of 0.5-11.7 ng KDR (VEGFR2) and 2 μM Tyr Olin 50 mM HEPES pH 7.5, 0.01% BRIJ-35, 10 mM MgCl2, 1 mM EGTA. After the 1 hour Kinase Reaction incubation, 5 μL of a 1:256 dilution of Development Reagent B is added.
# as §4, §5
# FGFR2 = target: T4, FGFR2 (Homo sapiens, UniProt P21802); assay: Z'-LYTE kinase inhibition assay, FGFR2; assay type: biochemical; details: read-out: IC50 against FGFR2
# T4 construct: purchased Invitrogen
# Description: as §1, §2
# (v) Peptide/Kinase Mixtures for measurement of FGFR2:
# as §3, with “FGFR2/Tyr” for “FGFR1/Tyr”, “0.19-2.36” for “0.41-3.5”, “FGFR2” for “FGFR1”
# as §4, §5
# H1299 cells = assay: Inhibition of cancer cell growth, MTT assay, H1299; details: Homo sapiens, NCI-H1299, 72 h, read-out: IC50 in H1299 cells
# Description: Inhibition of cell growth by compounds was measured using MTT assay (Mosmann, T., Journal of Immunological Methods, 1983, 65, 55-63). Tumor cell lines were purchased from ATCC (American Type Culture Collection, Manassas, Va.). All cell lines were maintained in RPMI 1640 (Hyclone) supplemented with 10% fetal bovine serum (FBS, Hyclone), glutamine (2 mM, Hyclone), and antibiotics (penicillin 100 U/mL and streptomycin 50 μg/mL) at 37° C. in a humidified atmosphere of 5% CO2 in air. Taxol (as a positive control, Sigma) and compounds were dissolved in DMSO (Sigma), and the final concentration of DMSO in the medium was 1%. Tumor cells were plated in 96-well plates at densities of about 4000 cells/well of a 96-well plate and allowed to adhere/grow for 24 h. They were then treated with various concentrations of drug for 72 h. […] The number of cells remaining after 72 h was compared to the number of viable cells at the time of compound addition by measuring the absorbance at 570 nm, allowing for the calculation of growth inhibition.
# All concentrations of compounds were tested in triplicate and controls were averaged over 4 wells. IC50 was calculated by plotting the concentration of compound vs the percentage of inhibition in treated wells using GraphPad Prism 5. […]
# T2 sequence (P11362 22-822): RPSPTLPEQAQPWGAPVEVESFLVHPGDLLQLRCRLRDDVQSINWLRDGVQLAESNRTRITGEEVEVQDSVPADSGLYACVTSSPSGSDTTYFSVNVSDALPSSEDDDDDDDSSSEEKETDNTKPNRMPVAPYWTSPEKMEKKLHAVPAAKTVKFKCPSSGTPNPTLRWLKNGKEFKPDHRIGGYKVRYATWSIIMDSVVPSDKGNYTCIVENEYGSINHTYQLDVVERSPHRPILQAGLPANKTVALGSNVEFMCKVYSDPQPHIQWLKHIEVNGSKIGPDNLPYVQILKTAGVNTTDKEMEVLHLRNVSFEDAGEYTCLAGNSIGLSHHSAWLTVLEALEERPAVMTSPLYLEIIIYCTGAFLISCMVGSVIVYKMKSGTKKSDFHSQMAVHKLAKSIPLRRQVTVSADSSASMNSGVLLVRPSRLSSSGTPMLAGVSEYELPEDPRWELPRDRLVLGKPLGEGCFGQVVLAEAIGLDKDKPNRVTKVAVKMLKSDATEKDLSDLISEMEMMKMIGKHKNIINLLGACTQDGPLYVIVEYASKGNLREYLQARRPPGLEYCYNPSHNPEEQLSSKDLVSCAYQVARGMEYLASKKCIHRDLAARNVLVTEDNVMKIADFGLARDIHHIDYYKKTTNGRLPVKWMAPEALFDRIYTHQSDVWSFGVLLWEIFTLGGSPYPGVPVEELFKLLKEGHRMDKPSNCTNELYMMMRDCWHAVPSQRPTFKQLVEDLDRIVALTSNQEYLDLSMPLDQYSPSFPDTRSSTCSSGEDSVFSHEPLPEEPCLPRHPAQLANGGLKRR
# T1 sequence (P00533 25-1210): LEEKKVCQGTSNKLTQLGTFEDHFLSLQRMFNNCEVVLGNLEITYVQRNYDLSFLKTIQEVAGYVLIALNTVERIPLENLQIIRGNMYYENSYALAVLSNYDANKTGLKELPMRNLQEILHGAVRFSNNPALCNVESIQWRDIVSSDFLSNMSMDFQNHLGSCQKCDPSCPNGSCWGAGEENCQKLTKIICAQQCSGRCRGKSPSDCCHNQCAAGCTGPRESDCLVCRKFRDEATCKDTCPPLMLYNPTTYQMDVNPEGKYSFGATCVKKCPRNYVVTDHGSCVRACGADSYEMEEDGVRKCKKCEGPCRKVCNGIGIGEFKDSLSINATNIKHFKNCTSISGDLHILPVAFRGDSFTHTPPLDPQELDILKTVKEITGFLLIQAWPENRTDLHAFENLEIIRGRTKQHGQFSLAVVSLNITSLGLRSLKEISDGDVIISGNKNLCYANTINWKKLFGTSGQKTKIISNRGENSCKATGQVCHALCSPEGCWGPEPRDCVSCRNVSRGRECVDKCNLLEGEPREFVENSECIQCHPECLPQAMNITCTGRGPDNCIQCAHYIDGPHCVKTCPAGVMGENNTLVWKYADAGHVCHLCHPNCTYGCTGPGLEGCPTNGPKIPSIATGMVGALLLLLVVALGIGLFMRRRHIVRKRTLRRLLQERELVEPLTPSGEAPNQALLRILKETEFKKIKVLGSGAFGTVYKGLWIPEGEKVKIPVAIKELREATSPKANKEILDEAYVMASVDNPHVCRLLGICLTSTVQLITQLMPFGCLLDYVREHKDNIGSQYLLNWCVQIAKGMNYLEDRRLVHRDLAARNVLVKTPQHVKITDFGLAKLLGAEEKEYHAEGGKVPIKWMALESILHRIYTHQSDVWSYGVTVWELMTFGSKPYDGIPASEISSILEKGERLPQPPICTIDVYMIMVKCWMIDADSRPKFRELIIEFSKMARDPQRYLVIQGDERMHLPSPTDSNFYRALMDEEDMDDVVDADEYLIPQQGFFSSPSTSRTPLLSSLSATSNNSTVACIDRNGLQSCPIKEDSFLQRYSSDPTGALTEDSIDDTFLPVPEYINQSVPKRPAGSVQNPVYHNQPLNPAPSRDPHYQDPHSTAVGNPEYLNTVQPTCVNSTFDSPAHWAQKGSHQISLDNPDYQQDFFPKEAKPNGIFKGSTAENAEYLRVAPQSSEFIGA
# T4 sequence (P21802 22-821): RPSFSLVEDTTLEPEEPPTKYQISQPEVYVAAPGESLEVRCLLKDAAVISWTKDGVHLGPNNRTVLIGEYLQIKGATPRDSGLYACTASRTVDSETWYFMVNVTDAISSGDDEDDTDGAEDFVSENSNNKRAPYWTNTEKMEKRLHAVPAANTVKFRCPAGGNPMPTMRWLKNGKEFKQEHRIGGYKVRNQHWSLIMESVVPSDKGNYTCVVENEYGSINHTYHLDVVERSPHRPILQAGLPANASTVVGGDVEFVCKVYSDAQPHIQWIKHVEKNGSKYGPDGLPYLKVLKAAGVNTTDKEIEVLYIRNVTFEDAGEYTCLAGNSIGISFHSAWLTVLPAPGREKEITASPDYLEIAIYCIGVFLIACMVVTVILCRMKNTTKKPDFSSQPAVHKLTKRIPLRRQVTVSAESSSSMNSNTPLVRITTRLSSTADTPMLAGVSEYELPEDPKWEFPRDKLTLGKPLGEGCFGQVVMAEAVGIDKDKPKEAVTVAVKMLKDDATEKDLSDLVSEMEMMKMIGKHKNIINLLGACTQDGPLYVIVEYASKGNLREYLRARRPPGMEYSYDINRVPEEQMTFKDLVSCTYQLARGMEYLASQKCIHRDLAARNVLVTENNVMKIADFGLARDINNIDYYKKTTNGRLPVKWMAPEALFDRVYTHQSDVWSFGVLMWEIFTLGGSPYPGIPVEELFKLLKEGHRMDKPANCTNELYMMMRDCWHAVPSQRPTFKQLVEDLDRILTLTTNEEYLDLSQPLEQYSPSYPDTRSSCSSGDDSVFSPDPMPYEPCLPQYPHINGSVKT
# T3 sequence (P35968 20-1356): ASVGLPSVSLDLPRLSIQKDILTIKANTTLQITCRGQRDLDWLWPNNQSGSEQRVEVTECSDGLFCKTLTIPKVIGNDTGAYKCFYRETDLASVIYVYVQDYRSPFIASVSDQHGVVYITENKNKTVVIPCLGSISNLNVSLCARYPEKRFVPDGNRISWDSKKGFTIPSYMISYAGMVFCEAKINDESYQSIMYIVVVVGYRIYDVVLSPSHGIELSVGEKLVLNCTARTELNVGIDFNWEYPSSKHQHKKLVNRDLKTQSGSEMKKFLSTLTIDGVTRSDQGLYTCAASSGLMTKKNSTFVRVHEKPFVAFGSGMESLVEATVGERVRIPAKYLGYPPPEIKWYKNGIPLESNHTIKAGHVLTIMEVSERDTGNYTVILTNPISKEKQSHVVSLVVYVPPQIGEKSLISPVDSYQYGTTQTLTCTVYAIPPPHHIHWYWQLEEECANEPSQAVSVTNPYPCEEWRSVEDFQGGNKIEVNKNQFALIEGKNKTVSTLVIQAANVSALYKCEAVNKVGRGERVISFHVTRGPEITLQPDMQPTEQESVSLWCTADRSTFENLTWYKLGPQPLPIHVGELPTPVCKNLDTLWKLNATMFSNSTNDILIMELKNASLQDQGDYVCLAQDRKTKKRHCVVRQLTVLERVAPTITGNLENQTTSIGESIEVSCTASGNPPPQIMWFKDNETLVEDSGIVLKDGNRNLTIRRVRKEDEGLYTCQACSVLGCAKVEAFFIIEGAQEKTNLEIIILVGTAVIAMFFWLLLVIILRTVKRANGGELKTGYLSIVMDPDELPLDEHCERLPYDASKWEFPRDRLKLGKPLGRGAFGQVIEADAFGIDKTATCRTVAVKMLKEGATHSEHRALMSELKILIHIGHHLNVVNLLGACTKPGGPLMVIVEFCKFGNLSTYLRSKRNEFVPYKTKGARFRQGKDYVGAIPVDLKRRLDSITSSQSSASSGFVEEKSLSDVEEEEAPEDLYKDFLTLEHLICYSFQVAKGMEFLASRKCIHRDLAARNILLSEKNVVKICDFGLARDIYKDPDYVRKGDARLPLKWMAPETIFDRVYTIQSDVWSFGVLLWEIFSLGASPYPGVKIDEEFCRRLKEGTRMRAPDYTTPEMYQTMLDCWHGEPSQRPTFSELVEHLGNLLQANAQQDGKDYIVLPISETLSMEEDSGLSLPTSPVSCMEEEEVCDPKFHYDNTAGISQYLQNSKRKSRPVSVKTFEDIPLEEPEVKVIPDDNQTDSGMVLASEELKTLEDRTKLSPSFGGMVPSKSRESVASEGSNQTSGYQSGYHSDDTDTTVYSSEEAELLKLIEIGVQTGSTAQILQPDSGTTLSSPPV
IC50 (FGFR1),IC50 (KDR (VEGFR2)),IC50 (FGFR2),SMILES,IC50 (EGFR (ErbB1)),other results
100 to 500 nM,100 to 500 nM,,"C=CC(=O)Nc1cccc(-c2cccc3cnc(Nc4ccc(N5CCN(C)CC5)cc4F)nc23)c1 [Example C044, N-(3-(2-((2-fluoro-4-(4-methylpiperazin-1-yl)phenyl)amino)quinazolin-8-yl)phenyl)acrylamide]",,
,,100 to 500 nM,"C=CC(=O)Nc1cccc(-c2cccc3cnc(Nc4ccc(N5CCN(CCO)CC5)cc4)nc23)c1 [Example C059, N-(3-(2-((4-(4-(2-hydroxyethyl)piperazin-1-yl)phenyl)amino)quinazolin-8-yl)phenyl)acrylamide]",,
100 to 500 nM,100 to 500 nM,100 to 500 nM,"C=CC(=O)Nc1cccc(-c2cccc3cnc(Nc4ccc(N5CCN(CCO)CC5)cc4F)nc23)c1 [Example C147, N-(3-(2-((2-fluoro-4-(4-(2-hydroxyethyl)piperazin-1-yl)phenyl)amino)quinazolin-8-yl)phenyl)acrylamide]",,
100 to 500 nM,100 to 500 nM,100 to 500 nM,"C=CC(=O)Nc1cccc(-c2cccc3cnc(Nc4ccc(N5CCN(CCO)CC5)c(F)c4F)nc23)c1 [Example C151, N-(3-(2-((2,3-difluoro-4-(4-(2-hydroxyethyl)piperazin-1-yl)phenyl)amino)quinazolin-8-yl)phenyl)acrylamide]",,

# More lines, now with the values behind:
SMILES,IC50 (FGFR1),IC50 (KDR (VEGFR2)),IC50 (FGFR2),IC50 (EGFR (ErbB1)),other results
"C=CC(=O)Nc1cccc(-c2cccc3cnc(Nc4ccc(N5CCN(C(C)=O)CC5)cc4)nc23)c1 [Example C032, N-(3-(2-((4-(4-acetylpiperazin-1-yl)phenyl)amino)quinazolin-8-yl)phenyl)acrylamide]",,,,100 to 500 nM,
"C=CC(=O)Nc1cccc(-c2cccc3cnc(Nc4ccc(OC5CCN(C)CC5F)cc4)nc23)c1 (centres unmarked) [Example C079, N-(3-(2-((4-((3-fluoro-1-methylpiperidin-4-yl)oxy)phenyl)amino)quinazolin-8-yl)phenyl)acrylamide]",,,,100 to 500 nM,
"C=CC(=O)Nc1cccc(-c2cccc3cnc(Nc4ccc(N5CCN(C)CC5)c(C(N)=O)c4)nc23)c1 [Example C085, 5-((8-(3-acrylamidophenyl)quinazolin-2-yl)amino)-2-(4-methylpiperazin-1-yl)benzamide]",,,,100 to 500 nM,
"C=CC(=O)Nc1cccc(-c2cccc3cnc(Nc4ccc(OCCO)cc4)nc23)c1 [Example C108, N-(3-(2-((4-(2-hydroxyethoxy)phenyl)amino)quinazolin-8-yl)phenyl)acrylamide]",,,,100 to 500 nM,
"C=CC(=O)Nc1cccc(-c2cccc3cnc(Nc4cc(F)c(N5CCN(C)CC5)c(F)c4)nc23)c1 [Example C146, N-(3-(2-((3,5-difluoro-4-(4-methylpiperazin-1-yl)phenyl)amino)quinazolin-8-yl)phenyl)acrylamide]",,,,,IC50 (H1299 cells): < 100 nM
